Measurements published in patent publication US20210255193A1, “LYSINE REACTIVE PROBES AND USES THEREOF” (The Scripps Research Institute, priority 2017, published 2021).

Columns and labels:
Experiment in all cases: competitive isoTOP-ABPP
Format in all cases: binding
[1] = molecular target: T1, TTR Transthyretin (Homo sapiens, UniProt P02766); settings: for isoTOP-ABPP ratio (R) at liganded lysine P02766_K35: 50 uM, in vitro, sol, 231
T1 construct: isoTOP-ABPP experiments performed in cell lysates (in vitro); endogenous in cells; host or cells: MDA-MB-231 soluble lysate
In short: (§1)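 Cell lysate treated in vitro with fragments (50 μM activated esters, 100 μM guanidinylating agents) or DMSO, labelled 1 h at ambient temperature with 0.1 mM STP-alkyne, CuAAC-tagged with light/heavy TEV tags, analysed by MS. R = DMSO/compound MS1 peak-area ratio; lysines with R≥4 called liganded.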

[2] = molecular target: T2, CPOX Coproporphyrinogen-III oxidase, mitochondrial (Homo sapiens, UniProt P36551); settings: for isoTOP-ABPP ratio (R) at liganded lysine P36551_K404: 50 uM, in vitro, sol, 231
T2 construct: isoTOP-ABPP experiments performed in cell lysates (in vitro); endogenous in cells; host or cells: soluble proteome of human cancer cell lines (MDA-MB-231; Ramos and Jurkat also prepared)
T2 sequence (P36551 111-454): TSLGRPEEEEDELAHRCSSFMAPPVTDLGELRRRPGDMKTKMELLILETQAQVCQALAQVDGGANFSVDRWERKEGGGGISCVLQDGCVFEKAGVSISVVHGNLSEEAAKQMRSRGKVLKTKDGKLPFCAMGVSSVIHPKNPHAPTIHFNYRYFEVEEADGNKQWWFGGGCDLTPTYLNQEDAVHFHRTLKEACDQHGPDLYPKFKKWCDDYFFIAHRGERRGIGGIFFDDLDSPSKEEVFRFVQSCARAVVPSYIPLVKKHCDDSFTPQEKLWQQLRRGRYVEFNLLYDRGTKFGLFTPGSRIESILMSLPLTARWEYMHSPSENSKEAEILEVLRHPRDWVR
Experimental: (§2) In vitro covalent fragment treatment for isoTOP-ABPP. All compounds were made up as solutions in DMSO (100×) and were used at a final concentration of 50 μM for activated esters and 100 μM for guanidinylating agents. For each profiling sample, 0.5 ml of lysate was treated with 5 μl of the 100× compound stock solution or 5 μl of DMSO. Samples were treated with activated esters for
(§3) STP-alkyne labeling and click chemistry. For concentration-dependent reactivity measurements by isoTOP-ABPP, 0.5 ml proteome aliquots were treated at ambient temperature with 1 mM STP-alkyne 1 (5 μl of 100 mM stock in DMSO) and 0.1 mM STP alkyne 1 (5 μl of 10 mM stock in DMSO), respectively. For competitive isoTOP-ABPP, after in vitro fragment treatment (detailed above), the samples were labeled for 1 h at ambient temperature with 0.1 mM STP-alkyne 1 (5 μl of 10 mM stock in DMSO). Samples were conjugated by copper-mediated azide-alkyne cycloaddition (CuAAC) to either the light (1 mM STP-alkyne or fragment treated) or heavy (0.1 mM STP-alkyne or DMSO treated) TEV tags (10 μl of 5 mM stocks in DMSO, final concentration=100 μM) using tris(2-carboxyethyl)phosphine hydrochloride
(§4) R value calculation and processing. The ratios of light and heavy MS1 peaks for each unique peptide were quantified with a CIMAGE software using default parameters (3 MS1 acquisitions per peak and signal to noise threshold set to 2.5). For reactivity measurements by isoTOP-ABPP, the R value was calculated from the ratio of MS1 peak areas, comparing the 1 mM STP alkyne sample (light TEV tag) with the 0.1 mM STP alkyne sample (heavy TEV tag). For competitive isoTOP-ABPP, the R value was calculated from the ratio of MS1 peak areas, comparing the DMSO treated sample (heavy TEV tag) with the compound treated sample (light TEV tag). […] Ratios for unique peptide entries are calculated for each experiment; overlapping peptides with the same modified lysine (for example, different charge states, MudPIT chromatographic steps or tryptic termini) are grouped together and the median ratio is reported as the final ratio (R). The peptide ratios reported by CIMAGE were further filtered to ensure the removal or correction of low-quality ratios in each individual data set. The quality filters applied were the following: removal of half tryptic peptides; for ratios with high standard deviations from the median (90% of the median or above) the lowest ratio was taken instead of the median; removal of peptides with R=20 and only a single MS2 event triggered during the elution of the parent ion; manual annotation of all the peptides with ratios of 20, removing any peptides with low quality elution profiles that remained after the previous curation steps (only done for competitive isoTOP-ABPP).
(§5) Cross-data processing for fragment screening. For compound treated samples, biological replicates of the same condition were averaged, if the standard deviation was below 60% of the mean; otherwise, for lysines with at least one R value <4 for a particular compound, the lowest value of the ratio set was taken. For lysines, where all R values for a particular compound were ≥4, the average was reported. For peptides containing several possible modified lysines, the lysine with the highest number of quantification events was used for analysis and the remaining, redundant peptides were reported as alternative modification sites. Peptides included in the aggregate dataset (those used for further bioinformatics and statistical analyses) were required to have been quantified in 2 experiments for competitive isoTOP-ABPP. Lysines were categorized as liganded, if they had at least one ratio R≥4 (hit fragments). For liganded lysines with R=20 for all liganding events, lysines were required to have been quantified with R=20 in two separate experiments and were further required to have been quantified with R<20 in one additional experiment.

[3] = molecular target: T3, FAM136A Protein FAM136A (Homo sapiens, UniProt Q96C01); settings: for isoTOP-ABPP ratio (R) at liganded lysine Q96C01_K99: 50 uM, in vitro, sol, 231
T3 construct: isoTOP-ABPP experiments performed in cell lysates (in vitro); endogenous in cells; host or cells: soluble proteome of human cancer cell lines (MDA-MB-231; Ramos and Jurkat also prepared)
In short: as §1

[4] = molecular target: T4, TPMT Thiopurine S-methyltransferase (Homo sapiens, UniProt P51580); settings: for isoTOP-ABPP ratio (R) at liganded lysine P51580_K32: 50 uM, in vitro, sol, 231
T4 construct: isoTOP-ABPP experiments performed in cell lysates (in vitro); endogenous in cells; host or cells: soluble proteome of human cancer cell lines (MDA-MB-231; Ramos and Jurkat also prepared)
T4 sequence (P51580 1-245): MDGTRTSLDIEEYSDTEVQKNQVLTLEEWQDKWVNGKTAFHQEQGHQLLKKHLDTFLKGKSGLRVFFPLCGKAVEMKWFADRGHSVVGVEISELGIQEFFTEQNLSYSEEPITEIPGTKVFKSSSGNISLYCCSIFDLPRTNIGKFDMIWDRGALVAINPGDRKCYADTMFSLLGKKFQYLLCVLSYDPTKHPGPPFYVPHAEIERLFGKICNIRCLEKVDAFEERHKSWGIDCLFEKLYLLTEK
Experimental: as §2, §3, §4, §5

T3 sequence (Q96C01 whole entry): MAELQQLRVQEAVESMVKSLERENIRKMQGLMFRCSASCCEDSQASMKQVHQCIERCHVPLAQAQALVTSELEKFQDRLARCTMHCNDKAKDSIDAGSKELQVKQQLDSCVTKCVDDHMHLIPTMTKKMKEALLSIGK

Row | SMILES | isoTOP-ABPP ratio (R) at liganded lysine P36551_K404 [2] | isoTOP-ABPP ratio (R) at liganded lysine Q96C01_K99 [3] | isoTOP-ABPP ratio (R) at liganded lysine P51580_K32 [4] | also measured
1 | O=C(Oc1ccc([N+](=O)[O-])cc1[N+](=O)[O-])c1ccc2ccccc2n1 [fragment 35, 2,4-Dinitrophenyl quinoline-2-carboxylate] | 1.2 |  |  | isoTOP-ABPP ratio (R) at liganded lysine P02766_K35 [1]: 15.6
2 | O=C(Oc1ccc([N+](=O)[O-])cc1[N+](=O)[O-])c1ccc(-c2ccccc2)cc1 [fragment 37, 2,4-Dinitrophenyl [1,1′-biphenyl]-4-carboxylate] | 1.0 | 1.0 | 1.5 | 
3 | O=C(CC12CC3CC(CC(C3)C1)C2)Oc1ccc([N+](=O)[O-])cc1[N+](=O)[O-] [fragment 38, 2,4-Dinitrophenyl 2-(adamantan-1-yl)acetate] | 1.0 |  | 1.1 | isoTOP-ABPP ratio (R) at liganded lysine P02766_K35 [1]: 1.2
4 | O=C(Oc1ccc([N+](=O)[O-])cc1[N+](=O)[O-])c1ccccc1Nc1cccc(C(F)(F)F)c1 [fragment 40, 2,4-Dinitrophenyl 2-((3-(trifluoromethyl)phenyl)amino)benzoate] | 1.8 | 0.8 | 1.1 | 
5 | CC(=O)Oc1ccc([N+](=O)[O-])cc1[N+](=O)[O-] [fragment 43, 2,4-Dinitrophenyl acetate] | 1.1 | 1.1 | 1.5 | 
6 | N#Cc1ccc(C(=O)Oc2ccc([N+](=O)[O-])cc2[N+](=O)[O-])cc1 [fragment 44, 2,4-Dinitrophenyl 4-cyanobenzoate] |  |  |  | isoTOP-ABPP ratio, lysine P02766_K35 ([1]; 50 uM_231_sol_in vitro): 20.0; isoTOP-ABPP ratio, lysine P36551_K404 ([2]; 50 uM_231_sol_in vitro): 1.0; isoTOP-ABPP ratio, lysine P51580_K32 ([4]; 50 uM_231_sol_in vitro): 1.4
7 | COC(=O)NC(=NC(=O)OCC1c2ccccc2-c2ccccc21)n1cccn1 [fragment 49, N-Methoxycarbonyl-N′-9-fluorenylmethoxycarbonyl-pyrazole-1-carboxamidine] |  |  |  | isoTOP-ABPP ratio, lysine Q96C01_K99 ([3]; 100 uM_231_sol_in vitro): 1.3; isoTOP-ABPP ratio, lysine P36551_K404 ([2]; 100 uM_231_sol_in vitro): 2.5
8 | CC(C)(C)OC(=O)N=C(NC(=O)OC(C)(C)C)n1cccn1 [fragment 50, reference compound] |  |  |  | isoTOP-ABPP ratio, lysine P02766_K35 ([1]; 100 uM_231_sol_in vitro): 2.1; isoTOP-ABPP ratio, lysine P36551_K404 ([2]; 100 uM_231_sol_in vitro): 1.8; isoTOP-ABPP ratio, lysine P51580_K32 ([4]; 100 uM_231_sol_in vitro): 11.7
9 | NC(=O)c1cc(C(F)(F)F)cc(C(F)(F)F)c1 [fragment 51, reference compound] |  |  |  | isoTOP-ABPP ratio, lysine P36551_K404 ([2]; 50 uM_231_sol_in vitro): 0.9; isoTOP-ABPP ratio, lysine P51580_K32 ([4]; 50 uM_231_sol_in vitro): 0.8
